What was measured:
[1] = system: CDK8 (TCF/LEF luciferase reporter in HCT116 cells); experiment: Cell based TCF/LEF reporter assay (HCT116+TCF/LEF luciferase); conditions: Homo sapiens
In short: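 Luciferase readout was corrected for viability (CellTiter-Fluor) and scaled between DMSO high and 10 uM CCT251545 low controls, giving IC50 by nonlinear regression. Compounds, serially diluted, were incubated 24 h at 37 °C on HCT116 clones stably expressing a TCF/LEF-driven luciferase reporter.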

[2] = system: CDK8 (phosphorylation of STAT1 at serine 727 in A549 cells); experiment: Cell based Phospho-STAT1 assay (IFNγ-stimulated A549 cells, AlphaLISA); conditions: Homo sapiens, phospho-STAT1 after IFNγ stimulation
In short: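 A549 cells given serial compound dilutions for 1 h at 37 °C, then stimulated with IFNγ at 10 ng/mL final for 30 min. Lysate STAT1 Ser727 phosphorylation measured by AlphaLISA; % inhibition vs stimulated/unstimulated DMSO controls, IC50 by nonlinear regression.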

SMILES | IC50 ([1]; HCT-116, 24 h) | IC50 ([2]; A549, A549 cells) | IC50 ([1]; HCT-116, 24 hours) | IC50 ([2]; A549 cells)
CC(C)(C#Cc1cccn2ncc(-c3ccc4c(cnn4C(F)F)c3)c12)C(N)=O [Compound P-0068, 4-(3-(1-(difluoromethyl)-1H-indazol-5-yl)pyrazolo[1,5-a]pyridin-4-yl)-2,2-dimethylbut-3-ynamide] | 0.1 to 100 nM | 0.1 to 100 nM | – | –
CCCS(=O)(=O)Nc1ccc2cc(-c3cnn4ccnc(C#CC(C)(C)C(N)=O)c34)ccc2c1 [Compound P-0069, 2,2-dimethyl-4-(3-(6-(propylsulfonamido)naphthalen-2-yl)pyrazolo[1,5-a]pyrazin-4-yl)but-3-ynamide] | 0.1 to 100 nM | 0.1 to 100 nM | – | –
Cc1n[nH]c2cc(-c3cnn4ccnc(C5=CCC(C#N)CC5)c34)ccc12 (stereo not drawn) [Compound P-0071, 4-(3-(3-methyl-1H-indazol-6-yl)pyrazolo[1,5-a]pyrazin-4-yl)cyclohex-3-ene-1-carbonitrile] | 0.1 to 100 nM | 0.1 to 100 nM | – | –
N#CC1CC=C(c2nccn3ncc(-c4cc5ccccc5s4)c23)CC1 (stereo not drawn) [Compound P-0073, 4-(3-(benzo[b]thiophen-2-yl)pyrazolo[1,5-a]pyrazin-4-yl)cyclohex-3-ene-1-carbonitrile] | 0.1 to 100 nM | 0.1 to 100 nM | – | –
N#CC1CC=C(c2nccn3ncc(-c4ccnc(NC5CCCC5)c4)c23)CC1 (stereo not drawn) [Compound P-0074] | 100 to 1000 nM | 100 to 1000 nM | – | –
Cc1ncc(-c2cnn3ccnc(C4=CCC(C#N)CC4)c23)s1 (stereo not drawn) [Compound P-0077, 4-(3-(2-methylthiazol-5-yl)pyrazolo[1,5-a]pyrazin-4-yl)cyclohex-3-ene-1-carbonitrile] | 100 to 1000 nM | 100 to 1000 nM | – | –
N#CC1CC=C(c2nccn3ncc(-c4ccc(OCC(O)CN5CCOCC5)cc4)c23)CC1 (stereo not drawn) [Compound P-0078, 4-(3-(4-(2-hydroxy-3-morpholinopropoxy)phenyl)pyrazolo[1,5-a]pyrazin-4-yl)cyclohex-3-ene-1-carbonitrile] | 0.1 to 100 nM | 0.1 to 100 nM | – | –
N#CC1CC=C(c2nccn3ncc(-c4ccc(OCC5CCCCO5)cc4)c23)CC1 (stereo not drawn) [Compound P-0079, 4-(3-(4-((tetrahydro-2H-pyran-2-yl)methoxy)phenyl)pyrazolo[1,5-a]pyrazin-4-yl)cyclohex-3-ene-1-carbonitrile] | 0.1 to 100 nM | 0.1 to 100 nM | – | –
CC(=O)Nc1cc(-c2cnn3ccnc(C4=CCC(C#N)CC4)c23)ccn1 (stereo not drawn) [Compound P-0080, N-(4-(4-(4-cyanocyclohex-1-ene-1-yl)pyrazolo[1,5-a]pyrazin-3-yl)pyridin-2-yl)acetamide] | 0.1 to 100 nM | 0.1 to 100 nM | – | –
N#CC1CC=C(c2nccn3ncc(-c4ccc(Cl)c(F)c4)c23)CC1 (stereo not drawn) [Compound P-0083, 4-(3-(4-chloro-3-fluorophenyl)pyrazolo[1,5-a]pyrazin-4-yl)cyclohex-3-ene-1-carbonitrile] | 100 to 1000 nM | 100 to 1000 nM | – | –
N#CC1CC=C(c2nccn3ncc(-c4ccc(OCC(O)CN5CCCCC5)cc4)c23)CC1 (stereo not drawn) [Compound P-0084, 4-(3-(4-(2-hydroxy-3-(piperidin-1-yl)propoxy)phenyl)pyrazolo[1,5-a]pyrazin-4-yl)cyclohex-3-ene-1-carbonitrile] | 0.1 to 100 nM | 0.1 to 100 nM | – | –
N#CC1CC=C(c2nccn3ncc(-c4ccc(OCCN5CCOCC5)cc4)c23)CC1 (stereo not drawn) [Compound P-0085, 4-(3-(4-(2-morpholinoethoxy)phenyl)pyrazolo [1,5-a]pyrazin-4-yl)cyclohex-3-ene-1-carbonitrile] | 0.1 to 100 nM | 0.1 to 100 nM | – | –
N#CC1CC=C(c2nccn3ncc(-c4ccc(OCCCN5CCCCC5)cc4)c23)CC1 (stereo not drawn) [Compound P-0086, 4-(3-(4-(3-(piperidin-1-yl)propoxy)phenyl)pyrazolo[1,5-a]pyrazin-4-yl)cyclohex-3-ene-1-carbonitrile] | 100 to 1000 nM | 0.1 to 100 nM | – | –
COc1ccc(-c2cnn3ccnc(C4=CCC(C#N)CC4)c23)cn1 (stereo not drawn) [Compound P-0087, 4-(3-(6-methoxypyridin-3-yl)pyrazolo[1,5-a]pyrazin-4-yl)cyclohex-3-ene-1-carbonitrile] | 100 to 1000 nM | 100 to 1000 nM | – | –
CC(C)(O)Cn1ncc2cc(-c3cnn4ccnc(C#CC(C)(C)C(N)=O)c34)ccc21 [Compound P-0091, 4-(3-(1-(2-hydroxy-2-methylpropyl)-1H-indazol-5-yl)pyrazolo[1,5-a]pyrazin-4-yl)-2,2-dimethylbut-3-ynamide] | 0.1 to 100 nM | 0.1 to 100 nM | – | –
CCCS(=O)(=O)Nc1ccc2cc(-c3cnn4ccnc(C5=CCC(C#N)CC5)c34)ccc2n1 (stereo not drawn) [Compound P-0094, N-(6-(4-(4-cyanocyclohex-1-en-1-yl)pyrazolo[1,5-a]pyrazin-3-yl)quinolin-2-yl)propane-1-sulfonamide] | 0.1 to 100 nM | 0.1 to 100 nM | – | –
CC(C)(C#Cc1nccn2ncc(-c3ccc4c(cnn4C(F)F)c3)c12)C(N)=O [Compound P-0095, 4-(3-(1-(difluoromethyl)-1H-indazol-5-yl)pyrazolo[1,5-a]pyrazin-4-yl)-2,2-dimethylbut-3-ynamide] | 0.1 to 100 nM | 0.1 to 100 nM | – | –
CC(C)(C#Cc1nccn2ncc(-c3ccc(N4CCOCC4)c(F)c3)c12)C(N)=O [Compound P-0099, 4-(3-(3-fluoro-4-morpholinophenyl)pyrazolo[1,5-a]pyrazin-4-yl)-2,2-dimethylbut-3-ynamide] | 100 to 1000 nM | 0.1 to 100 nM | – | –
N#CC1CCC(c2nccn3ncc(-c4ccc(N5CCOCC5)c(F)c4)c23)CC1 (stereo not drawn) [Compound P-0101, 4-(3-(3-fluoro-4-morpholinophenyl)pyrazolo[1,5-a]pyrazin-4-yl)cyclohexane-1-carbonitrile] | – | – | 100 to 1000 nM | 0.1 to 100 nM
N#CC1CC=C(c2nccn3ncc(-c4ccc(N5CCOCC5)c(F)c4)c23)CC1 (stereo not drawn) [Compound P-0102, 4-(3-(3-fluoro-4-morpholinophenyl)pyrazolo[1,5-a]pyrazin-4-yl)cyclohex-3-ene-1-carbonitrile] | 0.1 to 100 nM | 0.1 to 100 nM | – | –
COc1ccc(-c2cnn3ccnc(C4=CCC(C#N)CC4)c23)cc1F (stereo not drawn) [Compound P-0104, 4-(3-(3-fluoro-4-methoxyphenyl)pyrazolo[1,5-a]pyrazin-4-yl)cyclohex-3-ene-1-carbonitrile] | 0.1 to 100 nM | 0.1 to 100 nM | – | –
N#CC1CC=C(c2nccn3ncc(-c4ccc(C(N)=O)c(F)c4)c23)CC1 (stereo not drawn) [Compound P-0105, 4-(4-(4-cyanocyclohex-1-en-1-yl)pyrazolo[1,5-a]pyrazin-3-yl)-2-fluorobenzamide] | 100 to 1000 nM | 0.1 to 100 nM | – | –
CC(C)(O)Cn1cc2cc(-c3cnn4ccnc(C5=CCC(C#N)CC5)c34)ccc2n1 (stereo not drawn) [Compound P-0106, 4-(3-(2-(2-hydroxy-2-methylpropyl)-2H-indazol-5-yl)pyrazolo[1,5-a]pyrazin-4-yl)cyclohex-3-ene-1-carbonitrile] | 100 to 1000 nM | 0.1 to 100 nM | – | –

Second part, led by results:

IC50 ([1]; HCT-116, 24 h) | IC50 ([2]; A549, A549 cells) | SMILES | IC50 ([1]; HCT-116, 24 hours) | IC50 ([2]; A549 cells)
0.1 to 100 nM | 0.1 to 100 nM | N#CC1CC=C(c2nccn3ncc(-c4ccc5[nH]ncc5c4)c23)CC1 (stereo not drawn) [Compound P-0070, 4-(3-(1H-indazol-5-yl)pyrazolo[1,5-a]pyrazin-4-yl)cyclohex-3-ene-1-carbonitrile] | – | –
100 to 1000 nM | 100 to 1000 nM | N#CC1CC=C(c2nccn3ncc(-c4cnn(C5CC5)c4)c23)CC1 (stereo not drawn) [Compound P-0076, 4-(3-(1-cyclopropyl-1H-pyrazol-4-yl)pyrazolo[1,5-a]pyrazin-4-yl)cyclohex-3-ene-1-carbonitrile] | – | –
0.1 to 100 nM | 0.1 to 100 nM | COc1ccc(-c2cnn3ccnc(C4=CCC(C#N)CC4)c23)cc1 (stereo not drawn) [Compound P-0088, 4-(3-(4-methoxyphenyl)pyrazolo[1,5-a]pyrazin-4-yl)cyclohex-3-ene-1-carbonitrile] | – | –
100 to 1000 nM | 0.1 to 100 nM | N#CC1CC=C(c2nccn3ncc(-c4ccc(F)cc4)c23)CC1 (stereo not drawn) [Compound P-0089, 4-(3-(4-fluorophenyl)pyrazolo[1,5-a]pyrazin-4-yl)cyclohex-3-ene-1-carbonitrile] | – | –
0.1 to 100 nM | 0.1 to 100 nM | N#CC1CC=C(c2nccn3ncc(-c4ccc(Cl)cc4)c23)CC1 (stereo not drawn) [Compound P-0090, 4-(3-(4-chlorophenyl)pyrazolo[1,5-a]pyrazin-4-yl)cyclohex-3-ene-1-carbonitrile] | – | –
0.1 to 100 nM | 0.1 to 100 nM | N#CC1CC=C(c2nccn3ncc(-c4ccc(-c5cnn(CC6(C#N)CC6)c5)cc4)c23)CC1 (stereo not drawn) [Compound P-0096, 4-(3-(4-(1-((1-cyanocyclopropyl)methyl)-1H-pyrazol-4-yl)phenyl)pyrazolo[1,5-a]pyrazin-4-yl)cyclohex-3-ene-1-carbonitrile] | – | –
100 to 1000 nM | 0.1 to 100 nM | Cc1cc(-c2cnn3ccnc(C4=CCC(C#N)CC4)c23)ccc1C#N (stereo not drawn) [Compound P-0097, 4-(4-(4-cyanocyclohex-1-en-1-yl)pyrazolo[1,5-a]pyrazin-3-yl)-2-methylbenzonitrile] | – | –
0.1 to 100 nM | 0.1 to 100 nM | N#CCCn1cc(-c2ccc(-c3cnn4ccnc(C5CCC(C#N)CC5)c34)cc2)cn1 (stereo not drawn) [Compound P-0098, 4-(3-(4-(1-(2-cyanoethyl)-1H-pyrazol-4-yl)phenyl)pyrazolo[1,5-a]pyrazin-4-yl)cyclohexane-1-carbonitrile] | – | –
0.1 to 100 nM | 0.1 to 100 nM | N#CCCn1cc(-c2ccc(-c3cnn4ccnc(C5=CCC(C#N)CC5)c34)cc2)cn1 (stereo not drawn) [Compound P-0100, 4-(3-(4-(1-(2-cyanoethyl)-1H-pyrazol-4-yl)phenyl)pyrazolo[1,5-a]pyrazin-4-yl)cyclohex-3-ene-1-carbonitrile] | – | –
100 to 1000 nM | 0.1 to 100 nM | N#CC1CC=C(c2nccn3ncc(-c4cnn(-c5ccc(F)cc5)c4)c23)CC1 (stereo not drawn) [Compound P-0103, 4-(3-(1-(4-fluorophenyl)-1H-pyrazol-4-yl)pyrazolo[1,5-a]pyrazin-4-yl)cyclohex-3-ene-1-carbonitrile] | – | –
